Source: patent US9895352B2, “Indolinone compounds and uses thereof” (Oncternal Therapeutics, Inc., priority 2014, dated 2018)
Values joined by “and” are separate entries in the source; they are usually repeats but may differ in a detail not shown here. Equal entries are not always repeated. Where two headings read alike, the source gives them in different places.

Key:
MCF7 = assay: CCK-8 tetrazolium tumor cell growth inhibition, MCF7; format: cell-based; conditions: Homo sapiens; MCF7, Breast, no ETS rearrangement
Method: (§1) A modified tetrazolium salt assay using the CCK-8 kit (Sigma-Aldrich; St Louis, Mo.) was used to measure the inhibition of human tumor cell growth. Tumor cells (5000-7500 per well) were added to 96 well plates and allowed to attach for 4-5 hours. Compounds were serially diluted and added in triplicate at a concentration of 0.02 to 5 μM. DMSO was included as a vehicle control. Cells were incubated in the presence of compound for 3 days. After incubation CCK-8 reagent was added to each well and incubated for 2-4 hours. Viable cells were quantitated spectrophotometrically at a wavelength of 450 nm. Percent viability of each sample was calculated from the A450 values as follows: % viability=(A450 nm sample/A450 nm DMSO-treated cells×100). […] IC50 activities of particular compounds were determined using SKES cells (Ewing Sarcoma cell line).

[1] = rat liver microsome, no cofactor, 60 min
in vitro [2] = conditions: dog
LNCap = assay: CCK-8 tetrazolium tumor cell growth inhibition, LNCap; format: cell-based; conditions: Homo sapiens, Prostate, rearranged ETV1
Method: as §1

A4573 tumor cells [3] = assay: similar rat xenograft study; format: in vivo; conditions: compared to the vehicle control
[4] = system: SKES cells (Ewing Sarcoma cell line); assay: CCK-8 tetrazolium tumor cell growth inhibition, SKES; format: cell-based; conditions: Homo sapiens
Method: as §1

[5] = human liver microsome, no cofactor, 60 min
[6] = dog liver microsome, no cofactor, 60 min
TC71 = assay: CCK-8 tetrazolium tumor cell growth inhibition, TC71; format: cell-based; conditions: Homo sapiens, TC-71; TC71, ES, EWS-FLI1 Type 1
Method: as §1

A4573 tumor cells [7] = assay: A4573 xenograft study in mice; format: in vivo; conditions: A4573 tumors, 200 mg/kg bid oral, relative to vehicle control
PC3 = assay: CCK-8 tetrazolium tumor cell growth inhibition, PC3; format: cell-based; conditions: Homo sapiens, PC-3; PC3, Prostate, no ETS rearrangement
Method: as §1

BxPC3 = assay: CCK-8 tetrazolium tumor cell growth inhibition, BxPC3; format: cell-based; conditions: Homo sapiens, BXPC-3; BxPC3, Pancreas, increased FLI1
Method: as §1

MDA-MB-231 = assay: CCK-8 tetrazolium tumor cell growth inhibition, MDA-MB-231; format: cell-based; conditions: Homo sapiens; MDA-MB-231, Breast, increased ETV1
Method: as §1

[8] = mouse liver microsome, no cofactor, 60 min
in vitro [9] = conditions: rat
A4573 = assay: CCK-8 tetrazolium tumor cell growth inhibition, A4573; format: cell-based; conditions: Homo sapiens; A4573, ES, EWS-FLI1 Type 3
Method: as §1

[10] = Pharmacokinetics after IV and oral administration; format: in vivo; conditions: BALB/c mice or Sprague Dawley rats; for Cmax / Tmax / bioavailability / half-life: plasma; for Tmax: read-out: Tmax
Method: Certain pharmacokinetics parameters were determined for certain compounds in vivo for intravenous and oral administration. Briefly, compounds were formulated and administered using IV bolus, continuous IV infusion or oral administration. Blood was collected at multiple time points over 24 hours and processed into plasma. Plasma was analyses for parent using LC/MS/MS. Certain parameters for certain compounds were obtained in duplicate.

PANC1 = assay: CCK-8 tetrazolium tumor cell growth inhibition, PANC1; format: cell-based; conditions: Homo sapiens, PANC-1; PANC1, Pancreas, no ETS rearrangement
Method: as §1

in vitro [11] = conditions: human liver microsomes
in vitro [12] = conditions: mouse, liver microsomes
[13] = Half-life in dog hepatocytes; format: in vitro ADME; conditions: read-out: Half life of cmpds
Method: (§2) In another study, metabolism of compounds in hepatocytes from various species was examined. Hepatocytes were contacted with a compound, and the half-life of the compound was determined.

[14] = Half-life in rat hepatocytes; format: in vitro ADME; conditions: read-out: Half life of cmpds
Method: as §2

[15] = Half-life in mouse hepatocytes; format: in vitro ADME; conditions: read-out: Half life of cmpds
Method: as §2

[16] = Half-life in human hepatocytes; format: in vitro ADME; conditions: read-out: Half life of cmpds
Method: as §2

[17] = 72 h, SKES cells, 3 days with compound, CCK-8 (TABLE 3)
[18] = 20 mg/kg po, labrasol/tetraglycol 9:1
[19] = 20 mg/kg po, labrasol:tetraglycol:water 72:8:20
[20] = iv, 5 mg/kg, 5 mg/kg IV, captisol
[21] = po, 20 mg/kg, 20 mg/kg po, labrasol/tetraglycol 9:1
[22] = po, 20 mg/kg, 20 mg/kg po, labrasol:tetraglycol:water 72:8:20

Row | SMILES | IC50 [4, 17] [µM] | IC50 ([4]; SKES, ES, EWS-FLI1 Type 2) [µM] | Remaining (NCF = 60 min) [5] [%] | AUC ([10]; 5 mg/kg IV, captisol) | AUC [10, 18] | AUC [10, 19] | Cmax [10, 20] [ng/mL] | Tmax [10, 20] [min] | Cmax [10, 21] [ng/mL] | bioavailability [10, 21] [%] | half-life [10, 21] [min] | Tmax [10, 21] [min] | Cmax [10, 22] [ng/mL] | bioavailability [10, 22] [%] | half-life [10, 22] [min] | Tmax [10, 22] [min] | other results
1 | COc1ccc(C(=O)CC2(O)C(=O)Nc3c(Cl)ccc(Cl)c32)cc1 (single isomer, unassigned) [Cmpd 2, 4,7-Dichloro-3-hydroxy-3-[2-(4-methoxyphenyl-2-oxoethyl)]-1,3-dihydroindol-2-one] | < 5 | < 5 | 112.1 | 1991 h * (ng/mL) | 3896 h * (ng/mL) and 3890 h * (ng/mL) | 4574 h * (ng/mL) | 9380 | 1.98 | 2240 | 40 | 96 | 60 | 2840 | 47 | 90 | 60 | IC50 (MCF7): > 5 µM; Remaining (NCF = 60 min) [1]: 92.7%; half-life (in vitro [2]; microsomes): 30.3 min; IC50 (LNCap): < 5 µM; tumor growth inhibition (TGI) (A4573 tumor cells [3]): 87%; Remaining (NCF = 60 min) [6]: 100.6%; IC50 (TC71): < 5 µM; tumor growth inhibition (TGI) (A4573 tumor cells [7]): did not show TGI; IC50 (PC3): > 5 µM; IC50 (BxPC3): < 5 µM; IC50 (MDA-MB-231): < 5 µM; Remaining (NCF = 60 min) [8]: 90.2%; half-life (in vitro [9]; microsomes): 3.8 min; IC50 (A4573): < 5 µM; % F [10, 18]: 49%; % F [10, 19]: 57%; IC50 (PANC1): > 5 µM
2 | O=C(CC1(O)C(=O)Nc2c(Cl)ccc(Cl)c21)c1ccc(N2CCCC2)cc1 (single isomer, unassigned) [Cmpd 18, 4,7-Dichloro-3-hydroxy-3-(2-oxo-2-(4-(pyrrolidin-1-yl)phenyl)ethyl)indolin-2-one] | < 5 | < 5 | 99.4 | 3738 h * (ng/mL) | 7497 h * (ng/mL) | 11029 h * (ng/mL) | 14300 | 1.98 | 3220 | 50 | 84 | 60 | 6420 | 74 | 54 | 60 | half-life (in vitro [11]): 23 min; half-life (in vitro [2]; liver microsomes): 24.1 min; half-life (in vitro [12]): 9.6 min; half-life [13]: 30.6 min; half-life [14]: 18.8 min; half-life [15]: 60 min; half-life (in vitro [9]; liver microsomes): 1.3 min; half-life [10, 20]: 48 min; half-life [16]: 63.6 min
